Numbers after ± are expanded uncertainties.
How the values were obtained:
[1] = Crystal; DTA
[2] = Molar enthalpy of transition or fusion; conditions: Crystal; DSC

In the case of `Cc1cnc(NC(=O)C2=C(O)c3ccccc3S(=O)(=O)N2C)s1` [meloxicam], the Normal melting temperature [1] is reported as 263.6 ± 1.4 °C and the “Molar enthalpy of transition or fusion” value [2] is reported as 10.5 ± 0.287 kcal/mol.

Source: the NIST ThermoML archive (doi:10.1016/j.fluid.2011.03.012)
